Reference: patent publication US20260158033A1, “VECABRUTINIB FOR THE TREATMENT OF GRAFT-VERSUS-HOST DISEASE” (Viracta Therapeutics, Inc., priority 2021, published 2026)

Experiments:
[1] = system: murine model of sclerodermatous cGVHD; test: Murine model of sclerodermatous cGVHD: clinical GVHD score and symptoms; format: in vivo, mouse (BALB/c recipients, B10.D2 donors)
Description: (§1) A murine model of sclerodermatous cGVHD was initiated by adoptive transfer of T-cell depleted bone marrow plus whole splenocytes from B10.D2 donors into BALB/c recipients that were previously subjected to sub-lethal irradiation. Total bone marrow and irradiation only groups were included as controls. […] Body weight and clinical symptoms (appearance, activity, skin symptoms, diarrhea, conjunctivitis) were measured throughout the study. Immunophenotyping for B cells and T cells was performed on spleens collected from euthanized mice by flow cytometry at two timepoints (day 40 during treatment and on day 76 post-treatment). Levels of circulating immunoglobulins were measured by multiplex cytokine assay at both timepoints.
(§2) On day 40 (during treatment) and day 76 (post-treatment) groups of mice were euthanized for immunophenotyping analysis utilizing a 22-color flow cytometry panel. […] Scoring between 0-2 was assigned for each of the parameters (appearance, activity, skin symptoms, diarrhea, conjunctivitis) and totaled for each mouse.

[2] = mouse, in vivo
Description: as §1, §2

B cells and T cells = test: Immunophenotyping of spleen B cells and T cells by flow cytometry in cGVHD mice; format: in vivo, mouse (BALB/c recipients); settings: during treatment (day 40)
Description: as §1, §2

[3] = system: circulating immunoglobulins; test: Circulating immunoglobulins by multiplex cytokine assay in cGVHD mice; format: in vivo, mouse (BALB/c recipients); settings: during and post treatment, compared to vehicle
Description: as §1

BTK = BTK (Homo sapiens, UniProt Q06187); settings: reversible, non-covalent; cited from earlier work
ITK = molecular target: T1, ITK (Homo sapiens, UniProt Q08881); settings: ITK expressed in T cells; cited from earlier work
T1 sequence (Q08881 1-620): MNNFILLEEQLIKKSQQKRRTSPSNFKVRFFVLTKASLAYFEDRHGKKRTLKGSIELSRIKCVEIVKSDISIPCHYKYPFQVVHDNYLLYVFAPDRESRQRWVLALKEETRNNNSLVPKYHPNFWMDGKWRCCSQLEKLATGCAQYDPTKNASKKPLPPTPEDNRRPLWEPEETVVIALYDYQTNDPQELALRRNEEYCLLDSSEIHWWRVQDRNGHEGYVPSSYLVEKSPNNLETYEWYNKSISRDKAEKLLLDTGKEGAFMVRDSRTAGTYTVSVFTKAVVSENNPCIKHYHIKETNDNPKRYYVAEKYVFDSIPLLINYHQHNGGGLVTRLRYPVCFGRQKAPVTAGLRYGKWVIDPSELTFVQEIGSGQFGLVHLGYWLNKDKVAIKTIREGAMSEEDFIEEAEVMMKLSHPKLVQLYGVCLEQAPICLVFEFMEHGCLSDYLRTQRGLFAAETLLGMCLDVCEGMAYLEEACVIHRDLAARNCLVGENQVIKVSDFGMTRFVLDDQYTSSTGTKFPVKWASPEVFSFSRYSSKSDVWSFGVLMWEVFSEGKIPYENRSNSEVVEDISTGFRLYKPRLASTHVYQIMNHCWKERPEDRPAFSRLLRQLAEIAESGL

BTK, sequence (Q06187 whole entry, species assumed): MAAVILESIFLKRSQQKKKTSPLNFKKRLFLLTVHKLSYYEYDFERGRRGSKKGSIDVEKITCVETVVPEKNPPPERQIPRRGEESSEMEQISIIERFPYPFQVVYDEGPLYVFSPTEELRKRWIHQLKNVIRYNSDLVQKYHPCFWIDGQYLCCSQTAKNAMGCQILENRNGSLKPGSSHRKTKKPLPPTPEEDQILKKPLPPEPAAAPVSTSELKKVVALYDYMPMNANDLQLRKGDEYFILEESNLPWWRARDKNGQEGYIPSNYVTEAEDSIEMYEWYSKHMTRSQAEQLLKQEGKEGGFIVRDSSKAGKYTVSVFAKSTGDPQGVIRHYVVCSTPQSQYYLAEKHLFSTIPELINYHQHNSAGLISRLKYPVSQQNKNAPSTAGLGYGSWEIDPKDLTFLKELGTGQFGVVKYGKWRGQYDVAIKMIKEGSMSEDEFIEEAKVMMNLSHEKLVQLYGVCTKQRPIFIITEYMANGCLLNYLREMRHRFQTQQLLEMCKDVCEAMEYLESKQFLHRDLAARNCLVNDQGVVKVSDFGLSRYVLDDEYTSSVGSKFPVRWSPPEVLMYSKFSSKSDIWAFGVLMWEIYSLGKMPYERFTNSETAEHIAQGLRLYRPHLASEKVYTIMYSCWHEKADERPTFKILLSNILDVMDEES

NC(=O)[C@H]1CCN(c2ncnc(N)c2F)C[C@@H]1N1CCC[C@@H](Nc2cc(Cl)cc(C(F)(F)F)c2)C1=O [Vecabrutinib, (3R,3′R,4'S)-1′-(6-amino-5-fluoropyrimidin-4-yl)-3-((3-chloro-5-(trifluoromethyl)phenyl)amino)-2-oxo-[1,3′-bipiperidine]-4′-carboxamide]
Avg. Score Day 58 ([1]; average clinical GVHD score, 0-2 per parameter (appearance, activity, skin symptoms, diarrhea, conjunctivitis) totaled, Day 58, vecabrutinib 50 mg/kg once daily oral gavage, ibrutinib 30 mg/kg in drinking water, day 27 to 45): 2.50
Avg. Score Day 66 ([1]; average clinical GVHD score, 0-2 per parameter totaled, Day 66, vecabrutinib 50 mg/kg once daily oral gavage, ibrutinib 30 mg/kg in drinking water, day 27 to 45): 1.30
Avg. Score Day 71 ([1]; average clinical GVHD score, 0-2 per parameter totaled, Day 71, vecabrutinib 50 mg/kg once daily oral gavage, ibrutinib 30 mg/kg in drinking water, day 27 to 45): 2.90
Clinical symptoms (appearance, activity, skin irritation, redness, alopecia and diarrhea) ([1]; treated groups, vecabrutinib 50 mg/kg oral, ibrutinib 30 mg/kg drinking water): significantly reduced
Clinical score overall compared to ibrutinib ([1]; vecabrutinib-treated group vs ibrutinib, small sample size): trend toward a more favorable clinical score overall
Body weight post-treatment [2]: recovered body weight
Weight loss during treatment compared to vehicle [2]: slightly elevated
Activated and proliferating CD4+ and CD8+ T cells (B cells and T cells): reduced
B-cell activation (B cells and T cells): reduced
B-cell proliferation (B cells and T cells): reduced
CD4+ CXCR5+PD-1+ T follicular helper cells (B cells and T cells): reduced
CD4+CD25+ FoxP3+ Treg number (B cells and T cells): reduced
Cytotoxic granzyme-B+ CD8+ T cells (B cells and T cells): reduced
Expression of PD-1 on Tregs (B cells and T cells): reduced
Expression of antigen-presentation molecules CD80 and CD86 on B cells (B cells and T cells): unchanged
IL-4/5 secreted by B cells (B cells and T cells): less
IL-10 secreted by B cells (B cells and T cells): less
Number of B220+CD138+ plasma cells (B cells and T cells): reduced
Numbers of cytokine secreting CD4+ cells (B cells and T cells): globally reduced
Th1/Th2 or Th17/Treg ratios (B cells and T cells): no differences
Total B cell numbers (B cells and T cells): retained
Total CD3+ T cells (B cells and T cells): reduced
Circulating levels of IgA [3]: reduced
BTK inhibition (BTK): potent
Activity against ITK (ITK): demonstrates activity

C=CC(=O)N1CCC[C@@H](n2nc(-c3ccc(Oc4ccccc4)cc3)c3c(N)ncnc32)C1 [Ibrutinib, reference compound]
Body weight post-treatment [2]: recovered body weight
Weight loss during treatment compared to vehicle [2]: slightly elevated
